Marks after values point to notes of the source that are not given here.
How the values were obtained:
Axl(h) = Axl(h) (Homo sapiens, UniProt P30530); test: Kinase selectivity panel: Axl(h); format: biochemical
Protocol: (§1) Supplement oncotarget-08-50832-s003.xlsx, sheet "Sheet1" | column: Inhibition(%) at 3 µM

CLK2(h) = CLK2(h) (Homo sapiens, UniProt P49760); test: Kinase selectivity panel: CLK2(h); format: biochemical
Protocol: as §1

FaDu (pharynx) = test: Tumor cell survival, FaDu; conditions: Homo sapiens, read-out: IC50, tumor cell survival
Protocol: The cells were incubated for 48 h followed by further incubation for 1h after adding 10 μL/well CCK-8 solution (Dojindo, CK-04-13). Cell survival was determined by measuring the optical density at 450 nm using Labsystems Multiskan K3 (Thermo Fisher Scientific Inc.).

wild type EGFR = wild type EGFR (Homo sapiens, UniProt P00533); test: EGFR kinase inhibition assay (Z'-LYTE), enzyme kinetics
Chain of wild type EGFR (P00533 25-1210): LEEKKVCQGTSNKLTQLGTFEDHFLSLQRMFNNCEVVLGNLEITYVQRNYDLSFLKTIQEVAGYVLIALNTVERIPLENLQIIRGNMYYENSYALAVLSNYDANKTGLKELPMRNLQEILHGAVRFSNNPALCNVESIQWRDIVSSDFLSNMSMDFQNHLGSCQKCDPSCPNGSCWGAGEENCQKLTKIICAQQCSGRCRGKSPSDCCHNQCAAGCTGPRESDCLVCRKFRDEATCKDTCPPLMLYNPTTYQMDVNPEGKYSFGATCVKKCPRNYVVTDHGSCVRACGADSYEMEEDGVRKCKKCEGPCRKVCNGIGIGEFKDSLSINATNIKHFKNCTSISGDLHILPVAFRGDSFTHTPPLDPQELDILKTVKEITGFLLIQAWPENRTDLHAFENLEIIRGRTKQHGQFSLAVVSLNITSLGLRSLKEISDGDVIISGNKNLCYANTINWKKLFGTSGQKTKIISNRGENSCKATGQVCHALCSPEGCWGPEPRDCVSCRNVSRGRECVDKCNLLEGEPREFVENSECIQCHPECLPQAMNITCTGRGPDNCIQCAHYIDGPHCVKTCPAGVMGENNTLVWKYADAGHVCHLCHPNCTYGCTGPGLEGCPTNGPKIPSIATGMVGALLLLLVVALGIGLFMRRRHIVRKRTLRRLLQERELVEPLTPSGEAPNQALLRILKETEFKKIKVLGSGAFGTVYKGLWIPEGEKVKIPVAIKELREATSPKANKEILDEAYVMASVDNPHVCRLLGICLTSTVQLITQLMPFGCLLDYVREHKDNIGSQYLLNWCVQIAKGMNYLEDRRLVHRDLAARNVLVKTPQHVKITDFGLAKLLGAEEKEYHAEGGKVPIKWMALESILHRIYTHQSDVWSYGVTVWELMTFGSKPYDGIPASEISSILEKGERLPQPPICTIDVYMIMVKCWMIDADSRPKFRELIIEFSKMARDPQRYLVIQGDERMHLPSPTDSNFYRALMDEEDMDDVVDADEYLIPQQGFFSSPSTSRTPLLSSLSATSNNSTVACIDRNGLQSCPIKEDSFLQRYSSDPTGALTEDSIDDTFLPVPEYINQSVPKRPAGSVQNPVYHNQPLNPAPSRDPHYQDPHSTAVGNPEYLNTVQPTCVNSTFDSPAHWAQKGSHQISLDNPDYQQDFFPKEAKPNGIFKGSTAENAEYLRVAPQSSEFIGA
Protocol: EGFR kinase inhibition was determined using the Z´-LYTE™ kinase assay kit-Tyr 4 peptide (Invitrogen, PV3193). […] ATP (10, 50, 200, 500, 800 and 1000 μM) was finally added to the reaction mixture to initiate the enzymatic reaction. The final concentration of DMSO in the assay was 2%. The reaction mixture was incubated at 25°C for 60 minutes in a 384 well plate. Then, 5 μL of Development Reagent B was added per well and incubated for further 60 minutes at 25°C. The fluorescent signal was read at emission wavelengths, 445 nm and 520 nm after excitation at 400 nm in a Victor3 multi label reader (PerkinElmer).

CK1δ(h) = CK1δ(h) (Homo sapiens, UniProt P48730); test: Kinase selectivity panel: CK1δ(h); format: biochemical
Protocol: as §1

Pim-1(h) = Pim-1(h) (Homo sapiens, UniProt P11309); test: Kinase selectivity panel: Pim-1(h); format: biochemical
Chain of Pim-1(h) (P11309 whole entry): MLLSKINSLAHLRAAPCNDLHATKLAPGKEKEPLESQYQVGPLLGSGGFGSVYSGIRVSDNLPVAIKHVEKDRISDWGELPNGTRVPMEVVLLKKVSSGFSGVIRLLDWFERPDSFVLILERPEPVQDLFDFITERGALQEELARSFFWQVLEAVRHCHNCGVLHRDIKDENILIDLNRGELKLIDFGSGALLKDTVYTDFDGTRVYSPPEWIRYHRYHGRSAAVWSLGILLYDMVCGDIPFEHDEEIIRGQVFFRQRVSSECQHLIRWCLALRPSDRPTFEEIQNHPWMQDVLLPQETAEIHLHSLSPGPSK
Protocol: as §1

PDECX 1T1315 = test: Anti-tumor efficacy in PDECX model 1T1315; format: in vivo, mice; conditions: Theliatinib 15 mg/kg/day oral
Description: (§2) Seven- to nine week old NOD-SCID (NOD.CB17-Prkde/JSlac) immunodeficient or BALB/cASlac-nu/nu male or female mice were obtained from Shanghai SLAC Laboratory Animal Co. Ltd or Shanghai LingChang BioTech Co. Ltd. Fresh tumor specimens from newly diagnosed patients were collected during surgery and separated into three parts for the following: (1) To prepare formalin fixed paraffin embedded (FFPE) sections; (2) For snap freezing in liquid nitrogen for DNA extraction and sequencing and (3) For subcutaneous implantation into NOD-SCID mice (P0) and subsequent passages in additional NOD-SCID or nude mice once the tumor size reached 800~1500 mm^3. […] All experiments in animals were performed in accordance with protocols approved by the Hutchison MediPharma Limited Animal Care and Use Committee ([…]).
(§3) When the average tumor volume reached the 250~500 mm^3, mice were randomly divided into different experimental groups. […] Body weight and tumor size of all mice was measured twice or thrice a week. Tumor volumes (TV) were calculated by measuring two perpendicular diameters with calipers (formula: TV = (length × width^2)/2). Tumor growth inhibition (TGI) was calculated using the formula TGI= [1-(Vt -V0)drug treated / (Vt -V0)vehicle control]×100%. Statistical significance was determined by Student's t test and p < 0.05 was considered statistically significant.

PKCα(h) = PKCα(h) (Homo sapiens, UniProt P17252); test: Kinase selectivity panel: PKCα(h); format: biochemical
Protocol: as §1

c-RAF(h) = c-RAF(h) (Homo sapiens, UniProt P04049); test: Kinase selectivity panel: c-RAF(h); format: biochemical
Protocol: as §1

PKCβII(h) = PKCβII(h) (Homo sapiens, UniProt P05771); test: Kinase selectivity panel: PKCβII(h); format: biochemical
Chain of PKCβII(h) (P05771 1-673 isoform P05771-2): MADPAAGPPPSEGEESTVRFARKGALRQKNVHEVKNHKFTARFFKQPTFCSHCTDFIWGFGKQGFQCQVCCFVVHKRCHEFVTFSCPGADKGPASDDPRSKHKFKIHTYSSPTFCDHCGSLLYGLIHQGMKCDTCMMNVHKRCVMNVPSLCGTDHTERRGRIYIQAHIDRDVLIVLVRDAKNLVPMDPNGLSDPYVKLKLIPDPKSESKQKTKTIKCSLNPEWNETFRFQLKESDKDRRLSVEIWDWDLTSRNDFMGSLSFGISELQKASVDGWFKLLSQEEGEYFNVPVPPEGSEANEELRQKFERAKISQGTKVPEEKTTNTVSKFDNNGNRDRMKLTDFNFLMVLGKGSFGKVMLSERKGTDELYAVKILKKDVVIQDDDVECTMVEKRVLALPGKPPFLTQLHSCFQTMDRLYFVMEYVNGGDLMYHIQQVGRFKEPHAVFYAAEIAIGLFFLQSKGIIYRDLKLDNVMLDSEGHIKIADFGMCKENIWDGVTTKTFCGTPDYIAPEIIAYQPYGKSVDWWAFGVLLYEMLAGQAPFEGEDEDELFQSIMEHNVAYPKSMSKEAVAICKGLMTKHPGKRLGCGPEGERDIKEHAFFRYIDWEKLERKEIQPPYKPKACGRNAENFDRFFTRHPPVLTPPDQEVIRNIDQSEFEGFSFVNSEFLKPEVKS
Protocol: as §1

Ret(h) = Ret(h) (Homo sapiens, UniProt P07949); test: Kinase selectivity panel: Ret(h); format: biochemical
Protocol: as §1

PDECX 1T0327 = test: Anti-tumor efficacy in PDECX model 1T0327; format: in vivo, mice; conditions: Theliatinib 15 mg/kg/day oral; PDECX 1T0327 (FGFR1 OE)
Description: as §2, §3

EGFR = EGFR (Homo sapiens, UniProt P00533); test: EGF stimulated EGFR phosphorylation in A431 cells (DELFIA)
Protocol: EGF stimulated EGFR phosphorylation was determined in A431 human epidermoid carcinoma cells using the modified DELFIA assay. […] The control cells were treated with 10 μL of FBS-free DMEM medium containing 5% DMSO (final concentration of DMSO was 0.5%). Cells were stimulated by 20 ng/mL recombinant human EGF (BIOSOURCE, PHG0064) for 45 minutes. Then, the cell supernatant was discarded and the cells were lysed with 100 μL DELFIA lysis buffer. The plates with cell lysates were kept at -80°C overnight. Then, the lysates were thawed on ice with gently mixing, and 20 μL of lysates were added into the assay plates (PerkinElmer, AAAND-0001), pre-coated with monoclonal anti-EGFR capture antibody (R&D, AF231), followed by incubation for 1h at room temperature. The phosphorylated EGFR (p-EGFR) in the lysates was detected with the detection mixture containing DELFIA Eu-N1 labeled anti-phospho-tyrosine antibody PT66 (PerkinElmer, Eu-PT66) and DELFIA enhancement solution for 1h at room temperature. Fluorescence signals were detected at 620 nm emission and 340 nm excitation by Victor3 multi label reader (PerkinElmer).

[1] = tested on: phosphorylation of EGFR, AKT and ERK; test: Western blot in PDECX1T0326 tumor tissues for EGFR signaling inhibition; format: in vivo, mice; conditions: PDECX1T0326 tumors; 8 h after oral 15 mg/kg
Protocol: After 8 h, the animals were sacrificed and tumors were harvested. The tumors were homogenized in cold lysis buffer (Cell Signaling Technology, 9803) containing 1 mM PMSF (BIO BASIC INC., PB0425) and after centrifuging the lysates, the protein supernatant (containing 100 μg protein) were mixed with 5× SDS loading buffer and boiled at 100°C for 10 minutes and SDS-PAGE was performed (5% stacking gel at 80V for 20 minutes, then changed to 120V on 10% separating gel for 1h). Proteins were then transferred to nitrocellulose membranes (0.35A for 90 minutes), and incubated with the following antibodies individually: Phospho-EGFR (Tyr1068) (Invitrogen, 44788G), EGFR (Cell Signaling Technology, 2232), phospho-AKT (Cell Signaling Technology, 4060), AKT (Cell Signaling Technology, 9272), phospho-ERK (Thr202/Thr204) (Cell Signaling Technology, 4370), ERK (Cell Signaling Technology, 4695). After washing with the 1X TBST, the blots were incubated with the secondary IRDye 800-conjugated secondary antibody (LI-COR, 926-32211) and detected with […].

FAK(h) = FAK(h) (Homo sapiens, UniProt Q05397); test: Kinase selectivity panel: FAK(h); format: biochemical
Protocol: as §1

PDECX 1T0773 = test: Anti-tumor efficacy in PDECX model 1T0773; format: in vivo, mice; conditions: Theliatinib 15 mg/kg/day oral
Description: as §2, §3

mTOR(h) = mTOR(h) (Homo sapiens, UniProt P42345); test: Kinase selectivity panel: mTOR(h); format: biochemical
Protocol: as §1

TAO3(h) = TAO3(h) (Homo sapiens, UniProt Q9H2K8); test: Kinase selectivity panel: TAO3(h); format: biochemical
Protocol: as §1

Fgr(h) = Fgr(h) (Homo sapiens, UniProt P09769); test: Kinase selectivity panel: Fgr(h); format: biochemical
Protocol: as §1

cSRC(h) = cSRC(h) (Homo sapiens, UniProt P12931); test: Kinase selectivity panel: cSRC(h); format: biochemical
Chain of cSRC(h) (P12931 whole entry): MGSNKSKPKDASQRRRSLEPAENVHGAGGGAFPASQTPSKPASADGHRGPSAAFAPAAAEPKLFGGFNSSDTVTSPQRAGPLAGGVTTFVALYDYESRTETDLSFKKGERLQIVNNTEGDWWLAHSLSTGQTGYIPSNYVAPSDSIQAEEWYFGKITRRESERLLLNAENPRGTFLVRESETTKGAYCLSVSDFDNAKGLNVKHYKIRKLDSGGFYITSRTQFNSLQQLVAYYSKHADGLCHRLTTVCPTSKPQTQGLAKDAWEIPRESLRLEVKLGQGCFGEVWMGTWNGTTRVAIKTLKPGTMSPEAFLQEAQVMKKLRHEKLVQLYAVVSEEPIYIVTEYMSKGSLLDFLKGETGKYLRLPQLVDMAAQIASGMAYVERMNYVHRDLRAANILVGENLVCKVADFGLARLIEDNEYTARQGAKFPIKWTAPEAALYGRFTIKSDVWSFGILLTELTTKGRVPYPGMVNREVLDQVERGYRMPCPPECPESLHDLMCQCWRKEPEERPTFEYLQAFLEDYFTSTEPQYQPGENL
Protocol: as §1

Yes(h) = Yes(h) (Homo sapiens, UniProt P07947); test: Kinase selectivity panel: Yes(h); format: biochemical
Chain of Yes(h) (P07947 whole entry): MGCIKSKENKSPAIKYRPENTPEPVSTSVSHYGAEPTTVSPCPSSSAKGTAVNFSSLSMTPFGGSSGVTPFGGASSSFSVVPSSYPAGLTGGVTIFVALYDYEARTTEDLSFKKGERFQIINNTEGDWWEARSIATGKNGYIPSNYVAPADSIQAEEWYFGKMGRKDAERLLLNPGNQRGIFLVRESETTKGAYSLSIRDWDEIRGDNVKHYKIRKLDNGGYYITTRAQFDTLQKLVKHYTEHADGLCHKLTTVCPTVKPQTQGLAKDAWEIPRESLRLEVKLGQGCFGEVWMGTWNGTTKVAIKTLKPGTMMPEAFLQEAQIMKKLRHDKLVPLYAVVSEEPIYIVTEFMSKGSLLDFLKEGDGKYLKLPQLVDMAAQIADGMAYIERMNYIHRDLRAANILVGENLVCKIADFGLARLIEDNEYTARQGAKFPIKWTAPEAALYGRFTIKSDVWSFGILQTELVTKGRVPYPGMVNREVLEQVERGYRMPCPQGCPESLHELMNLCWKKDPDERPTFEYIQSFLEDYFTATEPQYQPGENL
Protocol: Supplement oncotarget-08-50832-s003.xlsx, sheet "Sheet1" | column: Inhibition(%) at 3 µM; IC50 (nM)

EGFR(T790M,L858R)(h) = EGFR(T790M,L858R)(h) (Homo sapiens, UniProt P00533, L858R/T790M); test: Kinase selectivity panel: EGFR(T790M,L858R)(h); format: biochemical
Chain of EGFR(T790M,L858R)(h) (P00533 25-1210 T790M/L858R): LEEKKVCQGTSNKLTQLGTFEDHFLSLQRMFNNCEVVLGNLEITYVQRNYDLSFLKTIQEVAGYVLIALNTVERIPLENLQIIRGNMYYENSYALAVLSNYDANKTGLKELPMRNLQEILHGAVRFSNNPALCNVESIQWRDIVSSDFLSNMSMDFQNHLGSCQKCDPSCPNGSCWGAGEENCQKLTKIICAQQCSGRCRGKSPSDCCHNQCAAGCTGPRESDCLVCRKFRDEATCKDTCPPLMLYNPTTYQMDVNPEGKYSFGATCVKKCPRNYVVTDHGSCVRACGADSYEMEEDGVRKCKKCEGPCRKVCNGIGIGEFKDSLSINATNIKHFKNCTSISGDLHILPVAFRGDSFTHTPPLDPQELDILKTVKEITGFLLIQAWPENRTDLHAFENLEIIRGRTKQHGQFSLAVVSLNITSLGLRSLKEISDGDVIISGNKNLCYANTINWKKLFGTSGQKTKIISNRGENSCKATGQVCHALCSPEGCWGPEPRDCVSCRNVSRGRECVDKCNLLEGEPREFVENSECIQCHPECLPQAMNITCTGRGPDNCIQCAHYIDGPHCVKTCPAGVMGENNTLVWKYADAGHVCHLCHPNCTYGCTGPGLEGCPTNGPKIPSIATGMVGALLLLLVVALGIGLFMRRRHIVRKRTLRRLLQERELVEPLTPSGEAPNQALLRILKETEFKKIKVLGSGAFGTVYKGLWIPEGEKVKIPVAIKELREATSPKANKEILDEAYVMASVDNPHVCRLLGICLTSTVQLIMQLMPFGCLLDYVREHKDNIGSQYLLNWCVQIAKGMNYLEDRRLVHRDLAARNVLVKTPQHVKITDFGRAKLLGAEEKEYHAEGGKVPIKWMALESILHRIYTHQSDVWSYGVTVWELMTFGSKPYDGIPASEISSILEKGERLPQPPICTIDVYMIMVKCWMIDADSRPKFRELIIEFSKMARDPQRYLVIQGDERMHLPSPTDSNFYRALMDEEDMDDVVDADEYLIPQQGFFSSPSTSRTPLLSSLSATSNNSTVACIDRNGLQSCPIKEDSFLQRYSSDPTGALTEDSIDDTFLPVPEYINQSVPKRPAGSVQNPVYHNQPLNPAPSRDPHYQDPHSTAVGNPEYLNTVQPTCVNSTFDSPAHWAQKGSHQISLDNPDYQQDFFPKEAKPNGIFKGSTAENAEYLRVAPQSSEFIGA

CLK3(h) = CLK3(h) (Homo sapiens, UniProt P49761); test: Kinase selectivity panel: CLK3(h); format: biochemical
Protocol: as §1

SGK(h) = SGK(h) (Homo sapiens, UniProt O00141); test: Kinase selectivity panel: SGK(h); format: biochemical
Protocol: as §1

Chain of CLK2(h) (P49760 whole entry): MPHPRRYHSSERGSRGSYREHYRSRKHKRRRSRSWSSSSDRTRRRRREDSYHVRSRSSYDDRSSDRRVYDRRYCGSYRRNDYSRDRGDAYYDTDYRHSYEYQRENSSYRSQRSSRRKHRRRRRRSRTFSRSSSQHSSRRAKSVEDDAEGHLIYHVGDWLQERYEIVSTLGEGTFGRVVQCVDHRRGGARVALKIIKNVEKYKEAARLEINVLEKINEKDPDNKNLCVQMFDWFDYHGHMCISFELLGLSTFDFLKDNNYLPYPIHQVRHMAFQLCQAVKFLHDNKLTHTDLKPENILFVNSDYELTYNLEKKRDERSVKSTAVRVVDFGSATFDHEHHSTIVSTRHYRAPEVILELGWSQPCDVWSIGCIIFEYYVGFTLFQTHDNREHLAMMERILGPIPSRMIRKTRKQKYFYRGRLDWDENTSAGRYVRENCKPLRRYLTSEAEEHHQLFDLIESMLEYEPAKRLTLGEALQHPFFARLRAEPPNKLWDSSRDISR

- inhibition at 3 µM (Axl(h)): 10%
- inhibition at 3 µM (CLK2(h)): 35%
- Ki (wild type EGFR): 0.05 nM
- fold greater potency than erlotinib or gefitinib (wild type EGFR; at both the enzyme and the cell level): 3~7 fold
- mode of inhibition (wild type EGFR; enzyme kinetics studies, wild type EGFR): ATP-competitive
- inhibition at 3 µM (CK1δ(h)): 19%
- inhibition at 3 µM (Pim-1(h)): 27%
- inhibition at 3 µM (PKCα(h)): 2%
- inhibition at 3 µM (c-RAF(h)): 3%
- inhibition at 3 µM (PKCβII(h)): 2%
- inhibition at 3 µM (Ret(h)): 3%
- IC50 (EGFR): 7 ± 2 nM
- inhibition at 3 µM (FAK(h)): 3%
- inhibition at 3 µM (mTOR(h)): -9%
- inhibition at 3 µM (TAO3(h)): -11%
- inhibition at 3 µM (Fgr(h)): 63%
- inhibition at 3 µM (cSRC(h)): 35%
- IC50 (Yes(h)): 334 nM
- inhibition at 3 µM (Yes(h); 3 µM): 88%
- IC50 (EGFR(T790M,L858R)(h)): 22 nM
- inhibition at 3 µM (CLK3(h)): 6%
- inhibition at 3 µM (SGK(h)): -13%
Structure (SMILES): C#Cc1cccc(Nc2ncnc3cc(OC)c(NC(=O)N4C[C@H]5CCN(C)[C@H]5C4)cc23)c1 [Theliatinib, (3aR,6aR)-N-(4-(3-ethynylphenyl-amino)-7-methoxyquinazolin-6-yl)-1-methyl-hexahydropyrrolo [3,4-b]pyrrole-5(1H)-carboxamide]
- IC50 (FaDu (pharynx)): 354 nM
- % TGI (PDECX 1T1315): 91.8** %
- % TGI (PDECX 1T0327): 67.4** %
- phosphorylation of EGFR (p-EGFR) and its downstream targets, AKT and ERK [1]: significant inhibition
- % TGI (PDECX 1T0773): −2.7%
